Results reported in ChEMBL document CHEMBL5375956, “Discovery of Pyrazolo[1,5-a]pyrimidine Derivative as a Novel and Selective ALKBH5 Inhibitor for the Treatment of AML” (J Med Chem, 2023).
The source made the active and inactive calls. The rule behind the calls is not given here.

Tests used:
MV4-11 [1] = assay: Antitumor activity against human MV4-11 cells xenografted in nude mouse assessed as tumor growth inhibition at 40 mg/kg, ip treated every day for 14 days relative to control; format: functional; conditions: MV4-11, 336 h, time 14 day, read-out: TGI
[2] = Toxicity in nude mouse xenografted with human MV4-11 cells assessed as heart weight change at 10 to 40 mg/kg, ip treated every day for 14 days; format: organism-based; conditions: in vivo, 336 h, dose 10-40 mg/kg, time 14 day
HEK293 [3] = assay: Effect on c-Myc level in HEK293 cells upto 10 uM incubated for 48 hrs by Western blot analysis; format: functional, cell-based; conditions: Homo sapiens
RNA demethylase ALKBH5 [4] = biological target: T1, RNA demethylase ALKBH5 (Homo sapiens, UniProt Q6P6C2); assay: Inhibition of ALKBH5 (66 to 292 residues)(unknown origin) expressed in Escherichia coli BL21(DE3) using 5'-ATTGTCA(m6A)CAGCAGA-FAM-3' as substrate incubated for 30 mins in presence of 2 uM of 2-OG by FP based competitive binding assay
Target sequence in this assay (Q6P6C2 whole entry, the tested form may be a part): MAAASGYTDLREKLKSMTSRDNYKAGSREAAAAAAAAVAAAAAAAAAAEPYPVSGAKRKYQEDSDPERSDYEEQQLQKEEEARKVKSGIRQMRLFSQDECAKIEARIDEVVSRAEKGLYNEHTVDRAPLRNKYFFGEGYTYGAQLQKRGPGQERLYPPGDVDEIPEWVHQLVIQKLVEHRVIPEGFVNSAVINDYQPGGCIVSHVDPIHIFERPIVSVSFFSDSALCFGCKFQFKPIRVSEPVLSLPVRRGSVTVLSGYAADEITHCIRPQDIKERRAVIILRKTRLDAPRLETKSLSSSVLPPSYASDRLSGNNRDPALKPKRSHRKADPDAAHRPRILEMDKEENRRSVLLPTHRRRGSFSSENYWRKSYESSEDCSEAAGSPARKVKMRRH

[5] = Metabolic stability in human plasma assessed as half life measured upto 240 mins by LC-MS/MS analysis; format: ADME, cell-free
[6] = Toxicity in nude mouse xenografted with human MV4-11 cells assessed as kidney weight change at 10 to 40 mg/kg, ip treated every day for 14 days; format: organism-based; conditions: in vivo, 336 h, dose 10-40 mg/kg, time 14 day
MV4-11 [7] = assay: Induction of apoptosis in human MV4-11 cells assessed as viable cells at 5 uM incubated for 48 hrs by Annexin V-FITC/PI staining based flow cytometry (reference value: 89.8 %); format: functional; conditions: read-out: Activity
RNA demethylase ALKBH5 [8] = biological target: T1, RNA demethylase ALKBH5; assay: Binding affinity to biotinylated ALKBH5 (66 to 292 residues)(unknown origin) expressed in Escherichia coli BL21(DE3) assessed as equilibrium dissociation constant by BLI assay
Target sequence in this assay (Q6P6C2 whole entry, the tested form may be a part): as above

RNA demethylase ALKBH5 [9] = biological target: T1, RNA demethylase ALKBH5; assay: Binding affinity to ALKBH5 in human MOLM-13 cells assessed as thermal shift heating at 200 uM incubated for 30 mins followed by heating at 45 to 67 degreeC measured for 3 mins by CETSA assay; format: cell-based
Target sequence in this assay (Q6P6C2 2-394 limits assumed): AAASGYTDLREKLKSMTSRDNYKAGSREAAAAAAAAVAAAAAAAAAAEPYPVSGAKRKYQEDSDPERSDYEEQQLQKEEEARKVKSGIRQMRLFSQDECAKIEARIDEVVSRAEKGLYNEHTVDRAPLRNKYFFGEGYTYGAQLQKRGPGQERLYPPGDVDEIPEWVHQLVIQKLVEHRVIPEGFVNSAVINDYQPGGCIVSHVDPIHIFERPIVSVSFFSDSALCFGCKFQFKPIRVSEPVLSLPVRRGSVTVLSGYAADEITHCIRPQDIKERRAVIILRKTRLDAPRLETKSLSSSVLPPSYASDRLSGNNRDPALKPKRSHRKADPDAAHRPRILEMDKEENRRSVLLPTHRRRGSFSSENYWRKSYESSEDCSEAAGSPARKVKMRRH

MV4-11 [10] = assay: Downregulation of TACC3 level in human MV4-11 cells upto 10 uM incubated for 48 hrs by Western blot analysis; format: functional, cell-based
MV4-11 [11] = assay: Induction of apoptosis in human MV4-11 cells assessed as early apoptosis cells at 5 uM incubated for 48 hrs by Annexin V-FITC/PI staining based flow cytometry (reference value: 1.24 %); format: functional
MOLM-13 [12] = assay: Downregulation of c-Myc mRNA level in human MOLM-13 cells at 5 to 10 uM incubated for 48 hrs by qRT-PCR analysis; format: functional, cell-based; conditions: dose 5-10 µM
MV4-11 [13] = assay: Induction of apoptosis in human MV4-11 cells assessed as late apoptosis cells at 5 uM incubated for 48 hrs by Annexin V-FITC/PI staining based flow cytometry (reference value: 7.17 %); format: functional
HEK293 [14] = assay: Effect on TACC3 level in HEK293 cells upto 10 uM incubated for 48 hrs by Western blot analysis; format: functional, cell-based; conditions: Homo sapiens
[15] = Tmax in Sprague-Dawley rat at 10 mg/kg, po measured for 1 to 1440 mins by LC-MS/MS analysis; format: ADME, organism-based; conditions: in vivo, time 1-1440 min
RNA demethylase ALKBH5 [16] = biological target: T1, RNA demethylase ALKBH5; assay: Inhibition of ALKBH5 (66 to 292 residues)(unknown origin) expressed in Escherichia coli BL21(DE3) using 5'-ATTGTCA(m6A)CAGCAGA-FAM-3' as substrate incubated for 30 mins by FP assay
Target sequence in this assay (Q6P6C2 whole entry, the tested form may be a part): as the sequence (Q6P6C2 whole entry, the tested form may be a part) above

MV4-11 [17] = assay: Induction of apoptosis in human MV4-11 cells assessed as viable cells at 10 uM incubated for 48 hrs by Annexin V-FITC/PI staining based flow cytometry (reference value: 89.8 %); format: functional; conditions: read-out: Activity
[18] = Metabolic stability in rat plasma assessed as half life measured upto 240 mins by LC-MS/MS analysis; format: ADME, cell-free
[19] = Half life in Sprague-Dawley rat at 10 mg/kg, po measured for 1 to 1440 mins by LC-MS/MS analysis; format: ADME, organism-based; conditions: in vivo, time 1-1440 min
RNA demethylase ALKBH5 [20] = biological target: T1, RNA demethylase ALKBH5; assay: Inhibition of ALKBH5 in human MV4-11 cells assessed as increase in m6A mRNA methylation level at 20 uM incubated for 48 hrs by LC-MS/MS analysis; format: cell-based
Target sequence in this assay (Q6P6C2 2-394 limits assumed): as the sequence (Q6P6C2 2-394 limits assumed) above

RNA demethylase ALKBH5 [21] = biological target: T1, RNA demethylase ALKBH5; assay: Inhibition of ALKBH5 (66 to 292 residues)(unknown origin) expressed in Escherichia coli BL21(DE3) using 5'-ATTGTCA(m6A)CAGCAGA-FAM-3' as substrate incubated for 30 mins in presence of 0.2 uM of 2-OG by FP based competitive binding assay
Target sequence in this assay (Q6P6C2 whole entry, the tested form may be a part): as the sequence (Q6P6C2 whole entry, the tested form may be a part) above

MOLM-13 [22] = assay: Induction of apoptosis in human MOLM-13 cells assessed as early apoptosis cells at 10 uM incubated for 48 hrs by Annexin V-FITC/PI staining based flow cytometry (reference value: 2.72 %); format: functional
MV4-11 [23] = assay: Induction of cell cycle arrest at […] phase in human MV4-11 cells at 20 uM incubated for 48 hrs by […]PI staining based flow cytometry; format: functional
[24] = Apparent oral clearance in Sprague-Dawley rat at 2 mg/kg, iv measured for 1 to 1440 mins by LC-MS/MS analysis; format: ADME, organism-based; conditions: in vivo, time 1-1440 min
MV4-11 [25] = assay: Antitumor activity against human MV4-11 cells xenografted in nude mouse assessed as tumor growth inhibition at 10 mg/kg, ip treated every day for 14 days relative to control; format: functional; conditions: MV4-11, 336 h, time 14 day, read-out: TGI
RNA demethylase ALKBH5 [26] = biological target: T1, RNA demethylase ALKBH5; assay: Competitive binding affinity to ALKBH5 (66 to 292 residues)(unknown origin) expressed in Escherichia coli BL21(DE3) using 5'-ATTGTCA(m6A)CAGCAGA-FAM-3' as substrate assessed as dissociation constant incubated for 30 mins in presence of 2-OG by FP assay
Target sequence in this assay (Q6P6C2 whole entry, the tested form may be a part): as above

MV4-11 [27] = assay: Induction of apoptosis in human MV4-11 cells assessed as late apoptosis cells at 10 uM incubated for 48 hrs by Annexin V-FITC/PI staining based flow cytometry (reference value: 7.17 %); format: functional
RNA demethylase ALKBH5 [28] = biological target: RNA demethylase ALKBH5 (Homo sapiens, UniProt Q6P6C2, R277A/Y139A); assay: Binding affinity to NT-647-NHS fluorescent dye-labeled ALKBH5 Y139A/R277A mutant (unknown origin) expressed in Escherichia coli BL21(DE3) using m6A-ssDNA as substrate assessed as dissociation constant incubated for 15 mins by MST assay
Sequence of RNA demethylase ALKBH5 (Homo sapiens, UniProt Q6P6C2, R277A/Y139A) (Q6P6C2 2-394 Y139A/R277A limits assumed): as the sequence (Q6P6C2 2-394 limits assumed) above, with Y138A, R276A counted along it

[29] = Metabolic stability in rat liver microsomes assessed as clearance measured upto 240 mins by LC-MS/MS analysis; format: ADME, Microsome; conditions: read-out: CLH
MV4-11 [30] = assay: Induction of apoptosis in human MV4-11 cells assessed as early apoptosis cells at 10 uM incubated for 48 hrs by Annexin V-FITC/PI staining based flow cytometry (reference value: 1.24 %); format: functional
MOLM-13 [31] = assay: Antiproliferative activity against human MOLM-13 cells assessed as inhibition of cell proliferation incubated for 72 hrs by Cell Titer Luminescence assay; format: functional, cell-based; conditions: MOLM-13, 72 h
MOLM-13 [32] = assay: Induction of apoptosis in human MOLM-13 cells assessed as late apoptosis cells at 10 uM incubated for 48 hrs by Annexin V-FITC/PI staining based flow cytometry (reference value: 6.49 %); format: functional
MOLM-13 [33] = assay: Downregulation of TACC3 level in human MOLM-13 cells upto 10 uM incubated for 48 hrs by Western blot analysis; format: functional, cell-based

Q: Which results are given for `O=C(OCc1ccc(C(F)(F)F)cc1)c1ccc(-c2cc3ncc(C(=O)c4c(O)ccc([N+](=O)[O-])c4O)cn3n2)cc1`?
A: inhibition in vivo at 40 mg/kg (MV4-11 [1]): 70.5%; Activity [2]: Non-Toxic; Activity (HEK293 [3]): inactive; IC50 (RNA demethylase ALKBH5 [4]): 4.64 µM; half-life [5]: 624 min; Activity [6]: Non-Toxic; viability at 5 µM (MV4-11 [7]): 59%; Kd (RNA demethylase ALKBH5 [8]): 6.62 µM; Activity (RNA demethylase ALKBH5 [9]): Active; Activity (MV4-11 [10]): Active; Activity (MV4-11 [11]): 1.44%; Activity (MOLM-13 [12]): Active; Activity (MV4-11 [13]): 36%; Activity (HEK293 [14]): inactive; Tmax [15]: 30 min; IC50 (RNA demethylase ALKBH5 [16]): 2970 nM; viability at 10 µM (MV4-11 [17]): 39.9%; half-life [18]: 251 min; half-life [19]: 148 min; inhibition (RNA demethylase ALKBH5 [20]): Active; IC50 (RNA demethylase ALKBH5 [21]): 4.89 µM; Activity (MOLM-13 [22]): 2.88%; Activity (MV4-11 [23]): Active; CL/F [24]: 5 mL/min/kg; inhibition in vivo at 10 mg/kg (MV4-11 [25]): 56.3%; Kd (RNA demethylase ALKBH5 [26]): ~65.7 nM; Activity (MV4-11 [27]): 55.4%; Kd (RNA demethylase ALKBH5 [28]): 15.8 µM; microsomal CLint [29]: 100 µL/min/mg; Activity (MV4-11 [30]): 2.59%; IC50 (MOLM-13 [31]): 450 nM; Activity (MOLM-13 [32]): 31.5%; Activity (MOLM-13 [33]): Active
